Measurements published in patent US10173991B2, “Sulfone amide linked benzothiazole inhibitors of endothelial lipase” (BRISTOL-MYERS SQUIBB COMPANY, priority 2014, dated 2019).

Molecular target: Endothelial lipase (EL) (Homo sapiens (Human), UniProt Q9Y5X9)
Assay: Endothelial lipase (EL) enzymatic assay with fluorescent substrate A10070 in DMPG vesicles
Format: biochemical
Conditions: not given
Method in brief: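 Vesicles prepared: A10070 dried with DMPG, resuspended in HEPES pH 8.0/NaCl/EDTA, sonicated on ice. Enzyme incubated with compound 30 min at 37° C. Reaction started with 1:10 diluted vesicles. Fluorescence (490/530 nm) followed 60 min; slope from 300–900 secs gives rate.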

Sequence of Endothelial lipase (EL) (Q9Y5X9 21-500): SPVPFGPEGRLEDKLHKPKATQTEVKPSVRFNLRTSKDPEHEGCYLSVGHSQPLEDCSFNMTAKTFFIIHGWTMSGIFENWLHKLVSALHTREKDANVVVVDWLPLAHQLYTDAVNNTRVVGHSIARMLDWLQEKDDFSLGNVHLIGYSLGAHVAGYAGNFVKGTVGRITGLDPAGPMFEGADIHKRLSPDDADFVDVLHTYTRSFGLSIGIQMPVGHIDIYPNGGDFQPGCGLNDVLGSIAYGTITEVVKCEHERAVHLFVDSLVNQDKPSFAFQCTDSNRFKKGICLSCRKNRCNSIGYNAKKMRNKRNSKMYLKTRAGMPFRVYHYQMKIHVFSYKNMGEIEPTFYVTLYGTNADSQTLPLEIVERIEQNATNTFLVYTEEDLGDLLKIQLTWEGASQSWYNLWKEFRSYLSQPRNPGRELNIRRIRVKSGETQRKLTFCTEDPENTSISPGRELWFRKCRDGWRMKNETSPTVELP

Structure (SMILES) | IC50 [µM]
COCCS(=O)(=O)C(C(=O)NCC(=O)NC1CC1)c1nc2c(F)cc(-c3ccc(C(=O)N4CCOCC4)cc3)cc2s1 (centres unmarked) [Example 208, N-[(cyclopropyl-carbamoyl)methyl]-2-{4-fluoro-6-[4-(morpholine-4-carbonyl)phenyl]-1,3-benzothiazol-2-yl}-2-(2-methoxyethane-sulfonyl) acetamide] | 0.011
COCCS(=O)(=O)C(C(=O)NCC(=O)NC1(C)CC1)c1nc2ccc(-c3ccc(F)nc3)cc2s1 (centres unmarked) [Example 381, 2-[6-(6-fluoropyridin-3-yl)-1,3-benzothiazol-2-yl]-2-(2-methoxyethane-sulfonyl)-N-{[(1-methylcyclopropyl)carbamoyl]methyl} acetamide] | 0.015
Cc1cc(-c2cc3sc(C(C(=O)NCC(=O)NC4CC4)S(=O)(=O)C(C)C)nc3cc2C)cnn1 (centres unmarked) [Example 257, N-[(cyclopropyl-carbamoyl)methyl]-2-[5-methyl-6-(6-methylpyridazin-4-yl)-1,3-benzothiazol-2-yl]-2-(propane-2-sulfonyl) acetamide] | 0.011
COCCS(=O)(=O)C(C(=O)NCC(=O)NC1CC1)c1nc2cc(C)c(-c3ccn(C)c(=O)c3)cc2s1 (centres unmarked) [Example 172, N-[(cyclopropyl-carbamoyl)methyl]-2-(2-methoxyethane-sulfonyl)-2-[5-methyl-6-(1-methyl-2-oxo-1,2-dihydropyridin-4-yl)-1,3-benzothiazol-2-yl]acetamide] | 0.027
CC(C)OCCNC(=O)CNC(=O)C(c1nc2cc(-c3ccc(F)nc3)c(F)cc2s1)S(C)(=O)=O (centres unmarked) [Example 360, 2-[6-fluoro-5-(6-fluoropyridin-3-yl)-1,3-benzothiazol-2-yl]-2-methanesulfonyl-N-({[2-(propan-2-yloxy)ethyl]carbamoyl}methyl)acetamide] | 0.021
CC(C)S(=O)(=O)C(C(=O)NCC(=O)NC1CC1)c1nc2c(F)cc(-c3ccc(C(=O)N4CCC4)cc3)cc2s1 (centres unmarked) [Example 284, 2-{6-[4-(azetidine-1-carbonyl)phenyl]-4-fluoro-1,3-benzothiazol-2-yl}-N-[(cyclopropyl-carbamoyl)methyl]-2-(propane-2-sulfonyl)acetamide] | 0.012
O=C(CNC(=O)C(c1nc2cc(F)c(-c3ccc(NC(=O)OCc4ccccc4)nc3)cc2s1)S(=O)(=O)CCC(F)(F)F)NC1CC1 (centres unmarked) [Example 554, benzyl N-{5-[2-({[(cyclopropyl-carbamoyl)methyl]carbamoyl}(3,3,3-trifluoropropane-sulfonyl)methyl)-5-fluoro-1,3-benzothiazol-6-yl]pyridin-2-yl} carbamate] | 0.003
COCCS(=O)(=O)C(C(=O)NCC(=O)NC1CC1)c1nc2cc(-c3cnnc(C)c3)ccc2s1 (centres unmarked) [Example 67, N-[(cyclopropyl-carbamoyl)methyl]-2-(2-methoxyethane-sulfonyl)-2-[5-(6-methylpyridazin-4-yl)-1,3-benzothiazol-2-yl]acetamide] | 0.016
COCCS(=O)(=O)C(C(=O)NCC(=O)NC1CC1)c1nc2cc(F)c(-c3ccc(-c4nn[nH]n4)c(F)c3)cc2s1 (centres unmarked) [Example 420, N-[(cyclopropyl-carbamoyl)methyl]-2-{5-fluoro-6-[3-fluoro-4-(2H-1,2,3,4-tetrazol-5-yl)phenyl]-1,3-benzothiazol-2-yl}-2-(2-methoxyethane-sulfonyl)acetamide] | 0.011
COCCS(=O)(=O)C(C(=O)NCC(=O)NC1CC1)c1nc2cc(-c3cccnc3C(F)(F)F)ccc2s1 (centres unmarked) [Example 61, N-[(cyclopropyl-carbamoyl)methyl]-2-(2-methoxyethane-sulfonyl)-2-{5-[2-(trifluoromethyl)pyridin-3-yl]-1,3-benzothiazol-2-yl}acetamide] | 0.005
O=C(CNC(=O)C(c1nc2cc(F)c(-c3ccc(NC(=O)OCc4nccs4)cc3)cc2s1)S(=O)(=O)CCC(F)(F)F)NC1CC1 (centres unmarked) [Example 523, 1,3-thiazol-2-ylmethyl N-{4-[2-({[(cyclopropyl-carbamoyl)methyl]carbamoyl}(3,3,3-trifluoropropane-sulfonyl)methyl)-5-fluoro-1,3-benzothiazol-6-yl]phenyl} carbamate] | 0.006

Other lines, results leading:

IC50 [µM] | Structure (SMILES)
0.028 | COCCS(=O)(=O)C(C(=O)NCC(=O)NC1CC1)c1nc2cc(Cl)c(-c3ccc(F)nc3)cc2s1 (centres unmarked) [Example 105, 2-[5-chloro-6-(6-fluoropyridin-3-yl)-1,3-benzothiazol-2-yl]-N-[(cyclopropyl-carbamoyl)methyl]-2-(2-methoxyethane-sulfonyl)acetamide]
0.057 | CC(C)CS(=O)(=O)C(C(=O)NCC(=O)NC1CC1)c1nc2ccc(-c3ccc(F)nc3)cc2s1 (centres unmarked) [Example 516, N-[(cyclopropyl-carbamoyl)methyl]-2-[6-(6-fluoropyridin-3-yl)-1,3-benzothiazol-2-yl]-2-(2-methylpropane-sulfonyl)acetamide]
0.036 | COCCS(=O)(=O)C(C(=O)NCC(=O)NCCOC(C)C)c1nc2cc(-c3ccc(=O)n(C)c3)c(F)cc2s1 (centres unmarked) [Example 355, 2-[6-fluoro-5-(1-methyl-6-oxo-1,6-dihydropyridin-3-yl)-1,3-benzothiazol-2-yl]-2-(2-methoxyethane-sulfonyl)-N-({[2-(propan-2-yloxy)ethyl]carbamoyl}methyl)acetamide]
0.031 | COCCS(=O)(=O)C(C(=O)NCC(=O)NC1CC1)c1nc2ccc(-c3cnn(CC(C)(C)O)c3)cc2s1 (centres unmarked) [Example 110, N-[(cyclopropyl-carbamoyl)methyl]-2-{6-[1-(2-hydroxy-2-methylpropyl)-1H-pyrazol-4-yl]-1,3-enzothiazol-2-yl}-2-(2-methoxyethane-sulfonyl) acetamide]
0.029 | COCCS(=O)(=O)C(C(=O)NCC(=O)NC1CC1)c1nc2ccc(-c3ccc(OC(C)C)nc3)cc2s1 (centres unmarked) [Example 291, N-[(cyclopropyl-carbamoyl)methyl]-2-(2-methoxyethane-sulfonyl)-2-{6-[6-(propan-2-yloxy)pyridin-3-yl]-1,3-benzothiazol-2-yl} acetamide]
0.005 | CS(=O)(=O)C(C(=O)NCC(=O)NC1CC1)c1nc2cc(F)c(-c3ccc4c(c3)CC(=O)N4)cc2s1 (centres unmarked) [Example 370, N-[(cyclopropyl-carbamoyl)methyl]-2-[5-fluoro-6-(2-oxo-2,3-dihydro-1H-indol-5-yl)-1,3-benzothiazol-2-yl]-2-methanesulfonyl-acetamide]
0.145 | COCCS(=O)(=O)C(C(=O)NCC(=O)NC1CC1)c1nc2cc(-c3cccc(-c4nnn[nH]4)c3)c(F)cc2s1 (centres unmarked) [Example 133, N-[(cyclopropyl-carbamoyl)methyl]-2-{6-fluoro-5-[3-(1H-1,2,3,4-tetrazol-5-yl)phenyl]-1,3-benzothiazol-2-yl}-2-(2-methoxyethane-sulfonyl) acetamide]

Same assay, conditions: EL from conditioned media of HT-1080 cells; 30 min preincubation at 37° C.

IC50 [µM] | Structure (SMILES)
0.0005 | COCCS(=O)(=O)C(C(=O)NCC(=O)NC1CC1)c1nc2cc(F)c(-c3ccc(NC(=O)OCC4CC4)cc3)cc2s1 (centres unmarked) [Example 525, Cyclopropylmethyl N-{4-[2-({[(cyclopropylcarbamoyl)methyl]carbamoyl}(2-methoxyethanesulfonyl)methyl)-5-fluoro-1,3-benzothiazol-6-yl]phenyl}carbamate]
0.204 | COCCS(=O)(=O)C(C(=O)NCC(=O)NC1CC1)c1nc2cc(C(=O)N3CCOCC3)c(F)cc2s1 (centres unmarked) [Example 425, N-(2-(Cyclopropylamino)-2-oxoethyl)-2-(6-fluoro-5-(morpholine-4-carbonyl)benzo[d]thiazol-2-yl)-2-((2-methoxyethyl)sulfonyl)acetamide]
